# Experimental data published in patent publication US20090012172A1, “Cosmetic/pharmaceutical compositions comprising retinoids and anti-irritants and treatment of keratinization disorders therewith” (GALDERMA RESEARCH & DEVELOPMENT, priority 2005, published 2009).
# “Also recorded” adds a separate entry of the source.
# Tests used:
# ear of the BALB/c mouse [1] = test: Tolerance study: anti-irritant in preventive treatment before topical Differin gel, ear thickness (edema); format: in vivo; conditions: anti-irritant applied before Differin gel
# Method: The goal of the present study is to compare the irritant power of a reference gel, comprising 0.1% adapalene, when this treatment is preceded or not preceded by treatment with an anti-irritant.
# (§1) The treatment consists of a daily topical application (20 μl) of anti-irritant, formulated in an aqueous/alcoholic vehicle (50% ethanol and 50% water by volume), on the internal face of the right ear of BALB/c mice divided into 15 groups (female mice approximately 9 weeks old), followed by a topical application (20 μl) of Differin® gel (reference gel comprising 0.1% adapalene) at the rate of one application of each formulation per day for 6 days.
# (§2) Evaluation is carried out by measurements of the thickness of the ear by means of the Oditest and by clinical observation of the animals from the 2nd to 19th day.
# [2] = system: skin of the back of the Rhino mouse (comedones); test: Comedolytic activity of Differin gel alone or preceded by anti-irritant on the Rhino mouse; format: in vivo, RHINO FVB/N RJ-hr (Rhino) mouse
# Method: The goal of the present study is to compare the comedolytic activity of Differin® gel (reference gel comprising 0.1% adapalene) whether this treatment is preceded or not preceded by a treatment with an anti-irritant.
# The treatment consists of a daily topical application of an aqueous/alcoholic vehicle (ethanol/water 50:50) comprising the anti-irritant potassium salt of 18β-glycyrrhetinic acid, followed 30 minutes later by an application of Differin® gel, on the skin of the back of the RHINO FVB/N RJ-hr^th (Rhino) mouse for 18 days.
# ear of the BALB/c mouse [3] = test: Study of tolerance of the formulation of Example 4 (non-split treatment), ear thickness; format: in vivo; conditions: adapalene and anti-irritant in the same formulation
# Method: as §1, §2
# A study of tolerance is carried out according to the protocol of Example 2 with the formulation of Example 4. However, the present case, in contrast to Example 2, relates to a treatment which is not split since the adapalene and the anti-irritant are present in the same formulation.
smiles,measurement,setting,value
"CC1(C)[C@@H](O)CC[C@]2(C)[C@H]3C(=O)C=C4[C@@H]5C[C@@](C)(C(=O)O)CC[C@]5(C)CC[C@@]4(C)[C@]3(C)CC[C@@H]12 [Enoxolone, 18β-Glycyrrhetinic acid]",effect on the irritation caused by Differin gel (in words),ear of the BALB/c mouse [1],virtually no effect
same,effect on the irritation caused by Differin gel (in words),ear of the BALB/c mouse [1]; listed as enoxolone,does not have an effect on the irritation due to retinoids
CC1(C)[C@@H](O)CC[C@]2(C)[C@H]3C(=O)C=C4[C@@H]5C[C@@](C)(C(=O)[O-])CC[C@]5(C)CC[C@@]4(C)[C@]3(C)CC[C@@H]12.[K+] [Potassium salt of 18β-glycyrrhetinic acid],number of comedones per centimeter,[2]; back of Rhino mice after 18 days of daily topical treatment,statistically equivalent to that of groups 1 and 3
same,effect on the comedolytic activity of Differin gel (in words),"[2]; split treatment, anti-irritant 30 minutes before Differin gel, 18 days",does not reduce the comedolytic activity
same,anti-irritant effect (in words),ear of the BALB/c mouse [3],appears to be an effective anti-irritant
same,effect on the irritation caused by Differin gel (in words),ear of the BALB/c mouse [1],effective in reducing the irritation due to adapalene; also recorded: significantly reduces the irritation
